# Assay results: PubChem BioAssay (NCI)
#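 The compound was tested at five concentrations on cells cultured in 96-well plates, with a 48-hour exposure period. GI50 marks 50% less growth. At the TGI there is no net growth.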
# Experiments:
# Experiment in all cases: DTP human tumour cell line panel, 48 h
# [1] = tested on: A549 NSCLC
# [2] = tested on: SR leukemia
# [3] = tested on: CCRF-CEM leukemia
# [4] = tested on: 786-0 renal
# [5] = tested on: OVCAR-8 ovarian
# [6] = tested on: SF-295 CNS
# [7] = tested on: PC-3 prostate
# [8] = tested on: NCI-H226 lung
# [9] = tested on: SW-620 colon
# [10] = tested on: SF-268 CNS
# [11] = tested on: KM12 colon
# [12] = tested on: OVCAR-5 ovarian
# [13] = tested on: SNB-75 CNS
# [14] = tested on: K-562 leukemia
# [15] = tested on: MCF7 breast
# [16] = tested on: HOP-92 NSCLC
# [17] = tested on: HCT-116 colon
# [18] = tested on: U251 CNS
# [19] = tested on: UACC-62 melanoma
# [20] = tested on: BT-549 breast
# [21] = tested on: HCT-15 colon
# [22] = tested on: SK-OV-3 ovarian
# [23] = tested on: NCI-H522 lung
# [24] = tested on: HCC-2998 colon
# [25] = tested on: SF-539 CNS
# [26] = tested on: SK-MEL-5 melanoma
# [27] = tested on: M14 melanoma
# [28] = tested on: HT29 colon
# [29] = tested on: NCI-H460 lung
# [30] = tested on: ACHN renal
# [31] = tested on: MDA-MB-435
# [32] = tested on: SN12C renal
# [33] = tested on: SK-MEL-28 melanoma
# [34] = tested on: IGROV1 ovarian
# [35] = tested on: A498 renal
# [36] = tested on: OVCAR-3 ovarian
# [37] = tested on: OVCAR-4 ovarian
# [38] = tested on: SNB-19 CNS
# [39] = tested on: RPMI-8226 leukemia
# [40] = tested on: EKVX NSCLC
# [41] = tested on: HS 578T breast
# [42] = tested on: RXF 393 renal
# [43] = tested on: UACC-257 melanoma
# [44] = tested on: UO-31 renal
# [45] = tested on: MALME-3M melanoma
# [46] = tested on: NCI-H23 lung
# [47] = tested on: LOX IMVI melanoma
# [48] = tested on: COLO 205 colon
# [49] = tested on: T-47D breast
# [50] = tested on: DU-145 prostate
# [51] = tested on: MOLT-4 leukemia
# [52] = tested on: HL-60(TB) leukemia
# [53] = tested on: HOP-62 NSCLC
# [54] = tested on: MDA-MB-231 breast
# [55] = tested on: SK-MEL-2 melanoma
# [56] = tested on: CAKI-1 renal
# [57] = tested on: NCI/ADR-RES ovarian
# [58] = tested on: TK-10 renal
smiles,measurement,setting,value
Cc1cc(Cl)ccc1Nc1nc(C(F)(F)F)ccc1C(=O)N/N=C/c1cccc(O)c1,GI50,[1],8.15 µM
same,TGI,[1],25.5 µM
same,GI50,[2],836 nM
same,TGI,[2],4.49 µM
same,GI50,[3],449 nM
same,TGI,[3],2410 nM
same,GI50,[4],4.01 µM
same,TGI,[4],13.3 µM
same,GI50,[5],1680 nM
same,TGI,[5],15.3 µM
same,GI50,[6],159 nM
same,TGI,[6],1100 nM
same,GI50,[7],2960 nM
same,TGI,[7],12.9 µM
same,GI50,[8],3.74 µM
same,TGI,[8],20.1 µM
same,GI50,[9],3.39 µM
same,TGI,[9],14.9 µM
same,GI50,[10],1600 nM
same,TGI,[10],12.2 µM
same,GI50,[11],2560 nM
same,TGI,[11],11.9 µM
same,GI50,[12],5.96 µM
same,TGI,[12],25 µM
same,GI50,[13],2070 nM
same,TGI,[13],13.8 µM
same,GI50,[14],1990 nM
same,TGI,[14],7.1 µM
same,GI50,[15],2210 nM
same,TGI,[15],12.7 µM
same,GI50,[16],3.36 µM
same,TGI,[16],13.9 µM
same,GI50,[17],4.42 µM
same,TGI,[17],16.5 µM
same,GI50,[18],4.51 µM
same,TGI,[18],19.8 µM
same,GI50,[19],5.88 µM
same,TGI,[19],19.5 µM
same,GI50,[20],861 nM
same,TGI,[20],4.24 µM
same,GI50,[21],2510 nM
same,TGI,[21],16 µM
same,GI50,[22],1230 nM
same,TGI,[22],10.6 µM
same,GI50,[23],8.28 µM
same,TGI,[23],> 41 µM
same,GI50,[24],3.13 µM
same,TGI,[24],13.8 µM
same,GI50,[25],4.38 µM
same,TGI,[25],15.8 µM
same,GI50,[26],3.35 µM
same,TGI,[26],12.6 µM
same,GI50,[27],4.53 µM
same,TGI,[27],17.3 µM
same,GI50,[28],5.03 µM
same,TGI,[28],16.9 µM
same,GI50,[29],3.57 µM
same,TGI,[29],12.8 µM
same,GI50,[30],4.19 µM
same,TGI,[30],> 31.8 µM
same,GI50,[31],2170 nM
same,TGI,[31],13.7 µM
same,GI50,[32],6.77 µM
same,TGI,[32],23.8 µM
same,GI50,[33],3.65 µM
same,TGI,[33],16.8 µM
same,GI50,[34],3.85 µM
same,TGI,[34],23.4 µM
same,GI50,[35],4.23 µM
same,TGI,[35],18.1 µM
same,GI50,[36],1480 nM
same,TGI,[36],12.7 µM
same,GI50,[37],1130 nM
same,TGI,[37],14.6 µM
same,GI50,[38],2370 nM
same,TGI,[38],11.9 µM
same,GI50,[39],2510 nM
same,TGI,[39],9.68 µM
same,GI50,[40],814 nM
same,TGI,[40],7.19 µM
same,GI50,[41],2110 nM
same,TGI,[41],11.5 µM
same,GI50,[42],194 nM
same,TGI,[42],11.3 µM
same,GI50,[43],11.5 µM
same,TGI,[43],38.2 µM
same,GI50,[44],4.98 µM
same,TGI,[44],29 µM
same,GI50,[45],1750 nM
same,TGI,[45],8.8 µM
same,GI50,[46],6.66 µM
same,TGI,[46],20.1 µM
same,GI50,[47],3.18 µM
same,TGI,[47],13.6 µM
same,GI50,[48],1170 nM
same,TGI,[48],9.55 µM
same,GI50,[49],112 nM
same,TGI,[49],3.13 µM
same,GI50,[50],3.66 µM
same,TGI,[50],15.2 µM
same,GI50,[51],1010 nM
same,TGI,[51],3.27 µM
same,GI50,[52],2110 nM
same,TGI,[52],4.97 µM
same,GI50,[53],7.22 µM
same,TGI,[53],20.7 µM
same,GI50,[54],4.77 µM
same,TGI,[54],35.4 µM
same,GI50,[55],2090 nM
same,TGI,[55],12.7 µM
same,GI50,[56],202 nM
same,TGI,[56],5.98 µM
same,GI50,[57],4.78 µM
same,TGI,[57],17.6 µM
same,GI50,[58],2450 nM
same,TGI,[58],12.3 µM
